What all share (assay): relative viability (nuclei count vs DMSO), 5 days (fraction); higher = more cells survive
Compound in the experiment “CX-5461 + Trametinib”: Cc1cnc(CNC(=O)c2c(=O)c3ccc(N4CCCN(C)CC4)nc3n3c2sc2ccccc23)cn1 [CX-5461] + CC(=O)Nc1cccc(-n2c(=O)n(C3CC3)c(=O)c3c(Nc4ccc(I)cc4F)n(C)c(=O)c(C)c32)c1 [Trametinib] (partner 0.02 µM)
The method in brief: (§1)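 Values are medians from duplicate plates. Each reflects relative viability, defined as the nuclei count of treated wells over that of vehicle wells. Lung cancer cell lines in 1536-well plates were pin-tool dosed one day after seeding with one drug alone or with a fixed anchor-drug dose plus five library-drug doses (not always all listed) in √10 steps, then fixed, stained and imaged at 4× after 5 days.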

Compound in the experiment “CX-5461 + Alpelisib”: Cc1cnc(CNC(=O)c2c(=O)c3ccc(N4CCCN(C)CC4)nc3n3c2sc2ccccc23)cn1 [CX-5461] + Cc1nc(NC(=O)N2CCC[C@H]2C(N)=O)sc1-c1ccnc(C(C)(C)C(F)(F)F)c1 [Alpelisib] (partner 2 µM)
The method in brief: as §1

Compound in the experiment “CX-5461 + Phenformin”: Cc1cnc(CNC(=O)c2c(=O)c3ccc(N4CCCN(C)CC4)nc3n3c2sc2ccccc23)cn1 [CX-5461] + N=C(N)NC(=N)NCCc1ccccc1 [Phenformin] (partner 250 µM)
Summed up: as §1

Compound in the experiment “IMD-0354 + Vorinostat”: O=C(Nc1cc(C(F)(F)F)cc(C(F)(F)F)c1)c1cc(Cl)ccc1O [IMD-0354] + O=C(CCCCCCC(=O)Nc1ccccc1)NO [Vorinostat] (partner 1 µM)
The method in brief: as §1

As for HCC-366, the relative viability in the experiment with CX-5461 + Trametinib (first compound 0.01 µM) was 0.345; in the experiment with CX-5461 + Trametinib (first compound 0.03162 µM), 0.389; with CX-5461 + Trametinib (first compound 0.1 µM) it was 0.443; in the experiment with CX-5461 + Trametinib (first compound 0.3162 µM) it was 0.412; in the experiment with CX-5461 + Trametinib (first compound 1 µM), 0.306; in the experiment with CX-5461 + Alpelisib (first compound 0.01 µM), 0.591. The relative viability with CX-5461 + Alpelisib (first compound 0.03162 µM) was 0.529; in the experiment with CX-5461 + Alpelisib (first compound 0.1 µM) it was 0.33; in the experiment with CX-5461 + Alpelisib (first compound 0.3162 µM), 0.507; with CX-5461 + Alpelisib (first compound 1 µM), 0.234; with CX-5461 + Phenformin (first compound 0.01 µM), 0.657; in the experiment with CX-5461 + Phenformin (first compound 0.03162 µM), 0.657. For the same cell line, the relative viability with CX-5461 + Phenformin (first compound 0.1 µM) came out at 0.627; with CX-5461 + Phenformin (first compound 0.3162 µM) it was 0.604; with CX-5461 + Phenformin (first compound 1 µM), 0.253; with IMD-0354 + Vorinostat (first compound 0.04 µM), 0.314; with IMD-0354 + Vorinostat (first compound 0.1265 µM), 0.439; in the experiment with IMD-0354 + Vorinostat (first compound 0.4 µM) it was 0.206. The relative viability with IMD-0354 + Vorinostat (first compound 1.265 µM) turned out to be 0.165; with IMD-0354 + Vorinostat (first compound 4 µM), 0.0652.

For HCC-827, the relative viability with CX-5461 + Trametinib (first compound 0.01 µM) came to 0.509; with CX-5461 + Trametinib (first compound 0.03162 µM), 0.583; with CX-5461 + Trametinib (first compound 0.1 µM), 0.617; with CX-5461 + Trametinib (first compound 0.3162 µM), 0.494; in the experiment with CX-5461 + Trametinib (first compound 1 µM), 0.582; with CX-5461 + Alpelisib (first compound 0.01 µM), 0.996. For the same cell line, the relative viability with CX-5461 + Alpelisib (first compound 0.03162 µM) was determined as 0.998; in the experiment with CX-5461 + Alpelisib (first compound 0.1 µM) it was 1.02; with CX-5461 + Alpelisib (first compound 0.3162 µM) it was 0.977; in the experiment with CX-5461 + Alpelisib (first compound 1 µM), 0.989; with CX-5461 + Phenformin (first compound 0.01 µM), 0.406; in the experiment with CX-5461 + Phenformin (first compound 0.03162 µM) it was 0.426. In addition, the relative viability with CX-5461 + Phenformin (first compound 0.1 µM) amounted to 0.444; with CX-5461 + Phenformin (first compound 0.3162 µM), 0.406; in the experiment with CX-5461 + Phenformin (first compound 1 µM) it was 0.359; with IMD-0354 + Vorinostat (first compound 0.04 µM), 0.86; in the experiment with IMD-0354 + Vorinostat (first compound 0.1265 µM), 0.841; with IMD-0354 + Vorinostat (first compound 0.4 µM) it was 0.706. Also, the values for the relative viability with IMD-0354 + Vorinostat (first compound 1.265 µM) and in the experiment with IMD-0354 + Vorinostat (first compound 4 µM) were 0.264 and 0.29, respectively.

With HOP-62, the relative viability was found to be 0.404 with CX-5461 + Trametinib (first compound 0.01 µM); 0.37 in the experiment with CX-5461 + Trametinib (first compound 0.03162 µM); 0.388 with CX-5461 + Trametinib (first compound 0.1 µM); 0.419 in the experiment with CX-5461 + Trametinib (first compound 0.3162 µM); 0.363 with CX-5461 + Trametinib (first compound 1 µM); 1.12 in the experiment with CX-5461 + Alpelisib (first compound 0.01 µM). For the same cell line, the relative viability with CX-5461 + Alpelisib (first compound 0.03162 µM) was 1.09; with CX-5461 + Alpelisib (first compound 0.1 µM) it was 1; in the experiment with CX-5461 + Alpelisib (first compound 0.3162 µM), 1.35; with CX-5461 + Alpelisib (first compound 1 µM), 1.05; with CX-5461 + Phenformin (first compound 0.01 µM) it was 0.743; with CX-5461 + Phenformin (first compound 0.03162 µM), 0.713. Moreover, the relative viability in the experiment with CX-5461 + Phenformin (first compound 0.1 µM) amounted to 0.742; in the experiment with CX-5461 + Phenformin (first compound 0.3162 µM) it was 0.572; with CX-5461 + Phenformin (first compound 1 µM), 0.472; with IMD-0354 + Vorinostat (first compound 0.04 µM), 0.573; with IMD-0354 + Vorinostat (first compound 0.1265 µM) it was 0.577; in the experiment with IMD-0354 + Vorinostat (first compound 0.4 µM) it was 0.417. The relative viability with IMD-0354 + Vorinostat (first compound 1.265 µM) was 0.193; with IMD-0354 + Vorinostat (first compound 4 µM), 0.109.

For the cell line IA-LM, the relative viability in the experiment with CX-5461 + Alpelisib (first compound 0.01 µM) is 0.873; with CX-5461 + Alpelisib (first compound 0.03162 µM) it was 0.715; with CX-5461 + Alpelisib (first compound 0.1 µM) it was 0.593; with CX-5461 + Alpelisib (first compound 0.3162 µM) it was 0.837; with CX-5461 + Alpelisib (first compound 1 µM), 0.316; in the experiment with IMD-0354 + Vorinostat (first compound 0.04 µM), 0.89. The relative viability in the experiment with IMD-0354 + Vorinostat (first compound 0.1265 µM) amounted to 0.737; in the experiment with IMD-0354 + Vorinostat (first compound 0.4 µM), 0.397; in the experiment with IMD-0354 + Vorinostat (first compound 1.265 µM) it was 1.11; with IMD-0354 + Vorinostat (first compound 4 µM) it was 0.681.

For the cell line LC-2-ad, the relative viability with CX-5461 + Trametinib (first compound 0.01 µM) came to 0.901; with CX-5461 + Trametinib (first compound 0.03162 µM), 0.96; in the experiment with CX-5461 + Trametinib (first compound 0.1 µM), 0.931; with CX-5461 + Trametinib (first compound 0.3162 µM), 0.912; with CX-5461 + Trametinib (first compound 1 µM), 0.847; in the experiment with CX-5461 + Alpelisib (first compound 0.01 µM) it was 0.885. Besides, the relative viability with CX-5461 + Alpelisib (first compound 0.03162 µM) amounted to 0.9; with CX-5461 + Alpelisib (first compound 0.1 µM), 0.805; with CX-5461 + Alpelisib (first compound 0.3162 µM) it was 0.981; with CX-5461 + Alpelisib (first compound 1 µM), 0.561; in the experiment with CX-5461 + Phenformin (first compound 0.01 µM), 0.618; with CX-5461 + Phenformin (first compound 0.03162 µM) it was 0.627. For the same cell line, the relative viability with CX-5461 + Phenformin (first compound 0.1 µM) came out at 0.564; with CX-5461 + Phenformin (first compound 0.3162 µM), 0.398; with CX-5461 + Phenformin (first compound 1 µM) it was 0.442; in the experiment with IMD-0354 + Vorinostat (first compound 0.04 µM), 0.732; with IMD-0354 + Vorinostat (first compound 0.1265 µM), 0.691; with IMD-0354 + Vorinostat (first compound 0.4 µM), 0.394. Also, the relative viability turned out to be 0.193 in the experiment with IMD-0354 + Vorinostat (first compound 1.265 µM) and 0.169 in the experiment with IMD-0354 + Vorinostat (first compound 4 µM).

For the origin of these results see the supplement of paper PMC10307832.
